Values joined by “and” are separate entries in the source; they are usually repeats but may differ in a detail not shown here. Equal entries are not always repeated.
How the values were obtained:
[1] = tested on: experimental rat hypercholesterolemia model; experiment: Lipid spectrum of blood in experimental rat hypercholesterolemia model; type: in vivo, male rats of Wistar line
In short: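 Male Wistar rats fed a cholesterol, cholic acid and overheated-fat diet ad libitum for 90 days. Drugs given intragastrically daily on Days 31-90. Serum total cholesterol, LDL-CHS, HDL-CHS and triglycerides measured in tail-vein blood after 14-15 h fasting.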

[2] = tested on: experimental rat hypercholesterolemia model; experiment: Biochemical blood analysis (drug toxicity parameters) in rat hypercholesterolemia model; type: in vivo, male rats of Wistar line
In short: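 Rats fed a hypercholesterolemic diet (cholesterol, cholic acid, overheated fats) for 90 days, with drugs given intragastrically by esophageal bougie daily on Days 31-90. Tail-vein blood taken after 14-15 h fasting at 9.00-11.00 for serum enzymes (AST, ALT, CPK, amylase), urea, bilirubins, glucose, K+ and Na+ on a biochemical analyzer.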

[3] = Mass coefficients of organs (pancreas, liver, kidneys) of rats; type: in vivo, male rats of Wistar line; settings: M ± m; for weight coefficient, Kidneys / weight coefficient, Liver: in %
Experimental: To calculate mass coefficients the pancreas, liver and kidneys of the animals were extracted. The organs were weighed and the mass coefficients were calculated by the following formula:
Mass coefficient=(organ weight/animal body weight)×100%

[4] = Stability of statin/glycyrrhizic acid molecular complexes by content of glycyrrhizic acid; type: physicochemical; settings: interval between testing points 7 months; European Pharmacopoeia 7.0 methodology
Experimental: Stability of these complexes was determined on the basis of quantitative content of glycyrrhizic acid (in percentage form). The interval between the testing points was 7 months. The testing methodology was taken from European Pharmacopoeia 7.0. […] This decline is related both to the conditions of synthesis (maximum decline observed for liquid-phase synthesis) and to the properties of the active ingredient itself.

[5] = Dynamics of body weight of rabbits (Schemes A and B); type: in vivo, male rabbits of Californian breed; settings: for Body weight: Scheme A, M ± SEM
Excerpt: The animals used in this experiment were involved reproductive male rabbits of Californian breed. 144 rabbits were used. The weight of the animals at the beginning of the trial ranged from 2.5 to 3 kg; the animals were 8 weeks old. Before the study the laboratory animals were contained for 27 and for 37 days in the separate coops for adaptation. During this period, clinical condition of animals was controlled every day by visual inspection. The criteria of the inclusion of animals in the experiment were health and body weight.
The introduction of drugs under two schemes was used to determine the mechanism of action of the studied drugs and the impact on the different stages of atherosclerosis.
Cholesterol administered daily in an oil solution at 0.3 g/kg of animal body weight, one time, 4 hours after drug administration. Cholesterol was dissolved in hot sunflower oil and administered to the animals through noninvasive probe into the stomach. The duration of administration amounted cholesterol from 1 to 90 days in subgroup A and 1 to 120 days in subgroup B. 2. After 30 days from the initiation of administration of cholesterol vitamin D3 (cholecalciferol) in a dose of 0.256 ml/kg was added to the diet of animals to enhance aortic lipidosis. Cholecalciferol was administered intragastrically via a probe from 31 till 60 days (Scheme A and B). […] In order to gain atherosclerotic lesions in aorta and atherosclerosis induction time reduction the animals were administered a dose of epinephrineequal to 0.04 mg/kg intravenously since 31 till 60 every five days (Scheme A and B).
Animal body weight was measured in accordance with standard procedures prior to the study, then—weekly (for calculating the volume of administration of the test compound and the reference drug) and immediately before euthanasia (on days 60 and 120)—to calculate the weight gain.
The administration was carried out intragastrically in accordance with standard procedures using atraumatic probe according to two treatment regimens every day at the same time.

[6] = Mass coefficients of liver and pancreas of rabbits; type: in vivo, male rabbits of Californian breed; settings: for pancreatic mass coefficients relative to the control group: rosuvastatin 40 mg, AGA 100 mg
[7] = Day 30 of treatment (Day 60 of study), dose 90 mg
[8] = Day 60 of treatment (Day 90 of study), dose 90 mg
[9] = blood, Day 60 of the treatment (Day 90 of the study), AV + GA 10 + 90 mg, AV 10 mg, GA 90 mg
[10] = blood, Day 60 of the treatment (Day 90 of the study), FV + GA 80 + 90 mg, FV 80 mg, GA 90 mg
[11] = AV + GA 10 + 90 mg, AV 20 mg, GA 90 mg
[12] = FV + GA 80 + 90 mg, FV 80 mg, GA 90 mg
[13] = Day 30 of treatment (Day 60 of study), dose 10 mg
[14] = Day 30 of treatment (Day 60 of study), dose 20 mg
[15] = Day 60 of treatment (Day 90 of study), dose 10 mg
[16] = Day 60 of treatment (Day 90 of study), dose 20 mg
[17] = blood, Day 60 of the treatment (Day 90 of the study), RV + AGA 10 + 108 mg, RV 10 mg, AGA 108 mg
[18] = RV + AGA 10 + 108 mg, RV 10 mg, AGA 108 mg

Q: Which results are given for `CC1(C)[C@@H](O[C@H]2O[C@H](C(=O)O)[C@@H](O)[C@H](O)[C@H]2O[C@@H]2O[C@H](C(=O)O)[C@@H](O)[C@H](O)[C@H]2O)CC[C@]2(C)[C@H]3C(=O)C=C4[C@@H]5C[C@@](C)(C(=O)O)CC[C@]5(C)CC[C@@]4(C)[C@]3(C)CC[C@@H]12` [GA, (3β,18α)-30-hydroxy-11,30-dioxoolean-12-en-3-yl 2-O-β-D-glucopyranuronosyl-β-D-glucopyranosiduronic acid]?
A: HDL CHS [1, 7]: 0.63 ± 0.04 mmol/L; LDL CHS [1, 7]: 4.00 ± 0.3 mmol/L; TG [1, 7]: 1.6 ± 0.10 mmol/L; Total CHS [1, 7]: 5.2 ± 0.5 mmol/L; HDL CHS [1, 8]: 0.73 ± 0.04 mmol/L; LDL CHS [1, 8]: 3.90 ± 0.3 mmol/L; TG [1, 8]: 1.6 ± 0.10 mmol/L; Total CHS [1, 8]: 4.5 ± 0.5 mmol/L; ALT [2, 7]: 100 U/l; AST [2, 7]: 125 U/l and 132 U/l; Amylase [2, 7]: 618 U/l; Bilirubin direct [2, 7]: 2.2 mg/dL; Bilirubin indirect [2, 7]: 1.4 mg/dL; Bilirubin total [2, 7]: 4.5 mg/dL; CPK [2, 7]: 320 U/l; Glucose [2, 7]: 111 mg/dL; Potassium [2, 7]: 2.2 mM; Sodium [2, 7]: 135 mmol; Urea [2, 7]: 5.7 mmol/L; ALT [2, 9]: 103 U/l; AST [2, 9]: 115 U/l; Amylase [2, 9]: 600 U/l; Bilirubin direct [2, 9]: 2.2 mg/dL; Bilirubin indirect [2, 9]: 1.8 mg/dL; Bilirubin total [2, 9]: 4.3 mg/dL; CPK [2, 9]: 233 U/l; Glucose [2, 9]: 116 mg/dL; Potassium [2, 9]: 3.1 mM; Sodium [2, 9]: 123 mmol; Urea [2, 9]: 5.0 mmol/L; ALT [2, 10]: 103 U/l; AST [2, 10]: 121 U/l; Amylase [2, 10]: 600 U/l; Bilirubin direct [2, 10]: 2.2 mg/dL; Bilirubin indirect [2, 10]: 1.8 mg/dL; Bilirubin total [2, 10]: 4.3 mg/dL; CPK [2, 10]: 233 U/l; Glucose [2, 10]: 116 mg/dL; Potassium [2, 10]: 3.1 mM; Sodium [2, 10]: 123 mmol; Urea [2, 10]: 5.0 mmol/L; weight coefficient, Pancreas [3, 11]: 0.20 ± 0.01^2; weight coefficient, Kidneys [3, 11]: 0.80 ± 0.01; weight coefficient, Liver [3, 11]: 4.41 ± 0.09; weight coefficient, Pancreas [3, 12]: 0.23 ± 0.01^2; weight coefficient, Kidneys [3, 12]: 0.80 ± 0.03; weight coefficient, Liver [3, 12]: 4.42 ± 0.09; stability with regard to time (content of glycyrrhizic acid) [4]: unstable

Q: Which “HDL CHS” value [1, 13] does the source give for `CC(C)c1nc(N(C)S(C)(=O)=O)nc(-c2ccc(F)cc2)c1/C=C/[C@@H](O)C[C@@H](O)CC(=O)O` [RV, (3R,5S,6E)-7-[4-(4-fluorophenyl)-2-(N-methylmethanesulfonamido)-6-(propan-2-yl)pyrimidin-5-yl]-3,5-dihydroxyhept-6-enoic acid] here?
A: The value was 0.81 ± 0.05 mmol/L.

Q: What about the “LDL CHS” value [1, 13] of the same molecule?
A: The value was 3.23 ± 0.21 mmol/L.

Q: What about the TG [1, 13] of the same molecule?
A: The TG was 1.21 ± 0.10 mmol/L.

Q: And the “Total CHS” value [1, 13]?
A: The value was 4.0 ± 0.2 mmol/L.

Q: And the “HDL CHS” value [1, 14]?
A: The value was 0.9 ± 0.03 mmol/L.

Q: What about the “LDL CHS” value [1, 14] of the same molecule?
A: The value was 3.00 ± 0.10 mmol/L.

Q: And the TG [1, 14]?
A: The TG was 1.27 ± 0.03 mmol/L.

Q: And the “Total CHS” value [1, 14]?
A: Its value is 3.6 ± 0.1 mmol/L.

Q: What about the “HDL CHS” value [1, 15] of the same molecule?
A: The value was 0.81 ± 0.05 mmol/L.

Q: And the “LDL CHS” value [1, 15]?
A: The value was 2.90 ± 0.21 mmol/L.

Q: And the TG [1, 15]?
A: The TG was 1.21 ± 0.10 mmol/L.

Q: And the “Total CHS” value [1, 15]?
A: The value was 3.7 ± 0.2 mmol/L.

Q: And the “HDL CHS” value [1, 16]?
A: The value was 0.91 ± 0.03 mmol/L.

Q: And the “LDL CHS” value [1, 16]?
A: Its value is 2.72 ± 0.20 mmol/L.

Q: What about the TG [1, 16] of the same molecule?
A: The TG was 1.29 ± 0.03 mmol/L.

Q: And the “Total CHS” value [1, 16]?
A: Its value is 3.3 ± 0.1 mmol/L.

Q: What about the ALT [2, 13] of the same molecule?
A: The ALT was 179 U/l.

Q: And the AST [2, 13]?
A: The AST was 182 U/l.

Q: What about the Amylase [2, 13] of the same molecule?
A: Its Amylase is 641 U/l.

Q: And the Bilirubin direct [2, 13]?
A: The Bilirubin direct was 2.7 mg/dL.

Q: What about the Bilirubin indirect [2, 13] of the same molecule?
A: Its Bilirubin indirect is 2.1 mg/dL.

Q: What about the Bilirubin total [2, 13] of the same molecule?
A: The Bilirubin total was 4.6 mg/dL.

Q: What about the CPK [2, 13] of the same molecule?
A: The CPK was 702 U/l.

Q: And the Glucose [2, 13]?
A: Its Glucose is 158 mg/dL.

Q: What about the Potassium [2, 13] of the same molecule?
A: Its Potassium is 4.3 mM.

Q: What about the Sodium [2, 13] of the same molecule?
A: Its Sodium is 128 mmol.

Q: What about the Urea [2, 13] of the same molecule?
A: Its Urea is 7.2 mmol/L.

Q: What about the ALT [2, 17] of the same molecule?
A: Its ALT is 139 U/l.

Q: What about the AST [2, 17] of the same molecule?
A: Its AST is 190 U/l.

Q: What about the Amylase [2, 17] of the same molecule?
A: The Amylase was 584 U/l.

Q: And the Bilirubin direct [2, 17]?
A: The Bilirubin direct was 2.9 mg/dL.

Q: And the Bilirubin indirect [2, 17]?
A: Its Bilirubin indirect is 1.7 mg/dL.

Q: And the Bilirubin total [2, 17]?
A: Its Bilirubin total is 4.8 mg/dL.

Q: What about the CPK [2, 17] of the same molecule?
A: Its CPK is 597 U/l.

Q: What about the Glucose [2, 17] of the same molecule?
A: Its Glucose is 130 mg/dL.

Q: And the Potassium [2, 17]?
A: Its Potassium is 2.2 mM.

Q: And the Sodium [2, 17]?
A: Its Sodium is 130 mmol.

Q: What about the Urea [2, 17] of the same molecule?
A: Its Urea is 6.4 mmol/L.

Q: What about the “weight coefficient, Pancreas” value [3, 18] of the same molecule?
A: The value was 0.35 ± 0.04.

Q: And the “weight coefficient, Kidneys” value [3, 18]?
A: The value was 0.75 ± 0.03.

Q: And the “weight coefficient, Liver” value [3, 18]?
A: The value was 4.42 ± 0.11.

Q: What about the Body weight ([5]; Day 0 (Before the study), dose group 20 mg) of the same molecule?
A: Its Body weight is 2874 ± 165 g.

Q: And the Body weight ([5]; Day 0 (Before the study), dose group 40 mg)?
A: Its Body weight is 2787 ± 141 g.

Q: What about the Body weight ([5]; Day 28 (in the setting of pathology without treatment), dose group 20 mg) of the same molecule?
A: Its Body weight is 3350 ± 157 g.

Q: And the Body weight ([5]; Day 28 (in the setting of pathology without treatment), dose group 40 mg)?
A: Its Body weight is 3428 ± 146 g.

Q: What about the Body weight ([5]; Day 90 (in the setting of pathology with treatment), dose 20 mg) of the same molecule?
A: Its Body weight is 4340 ± 53 g.

Q: And the Body weight ([5]; Day 90 (in the setting of pathology with treatment), dose 40 mg)?
A: Its Body weight is 4348 ± 66 g.

Q: And the “Body weight, M ± SEM, Day 120 (in the setting of pathology with treatment)” value ([5]; Scheme B, dose 20 mg)?
A: Its value is 4699 ± 131^1 g.

Q: And the “Body weight, M ± SEM, Day 0 (Before the study)” value ([5]; Scheme B, dose 20 mg, baseline)?
A: Its value is 2665 ± 85 g.

Q: What about the “Body weight, M ± SEM, Day 56 (in the setting of pathology without treatment)” value ([5]; Scheme B, dose 20 mg, before treatment) of the same molecule?
A: Its value is 3479 ± 106 g.

Q: And the “Mass ratios, M ± SEM, Liver” value ([6]; Scheme A, dose 20 mg)?
A: Its value is 3.8 ± 0.2.

Q: What about the “Mass ratios, M ± SEM, Pancreas” value ([6]; Scheme A, dose 20 mg) of the same molecule?
A: The value was 0.07 ± 0.006.

Q: And the “Mass ratios, M ± SEM, Liver” value ([6]; Scheme A, dose 40 mg)?
A: The value was 4.0 ± 0.1.

Q: And the “Mass ratios, M ± SEM, Pancreas” value ([6]; Scheme A, dose 40 mg)?
A: The value was 0.09 ± 0.004.

Q: What about the “pancreatic mass coefficients relative to the control group” value ([6]; Scheme A) of the same molecule?
A: The value was “significant increase”.

Q: What about the “Mass ratios, M ± SEM, Liver” value ([6]; Scheme B, dose 20 mg) of the same molecule?
A: Its value is 3.8 ± 0.2.

Q: What about the “Mass ratios, M ± SEM, Pancreas” value ([6]; Scheme B, dose 20 mg) of the same molecule?
A: The value was 0.09 ± 0.004^12.

Q: What about the “pancreatic mass coefficients relative to the control group” value ([6]; Scheme B) of the same molecule?
A: The value was “statistically significant increase”.

Source: US20170304336A1, “COMBINATION” (priority 2014, published 2017)
